Values of other authors in US8747898B2, “Controlled release oral dosage form” (Andrx Pharmaceuticals, LLC, priority 1999, dated 2014).
Structures can show the parent of a compound that is named as a salt.

Assays:
monoamine oxidase = conditions: in words
norepinephrine uptake = conditions: in words
[1] = in words
[2] = in words; remark: listed apart in the source

Compound | inhibition of monoamine oxidase (monoamine oxidase) | blockade of norepinephrine uptake (norepinephrine uptake) | terminal T ½ (following single doses) | mean half-life of distributive phase (two-compartment model) [h] | solubility in water [1] | permeability [2]
CC(NC(C)(C)C)C(=O)c1cccc(Cl)c1 (stereo not drawn) [bupropion] | does not inhibit | weak blocker | about 14 hours | 3 to 4 | – | –
CC(NC(C)(C)C)C(=O)c1cccc(Cl)c1 (stereo not drawn) [Bupropion hydrochloride, bupropion hydrochloride] | – | – | – | – | highly soluble | high permeability
